Reference: patent US7981633B2, “Method for measuring tyrosine kinase phosphorylation” (Merck Patent GmbH, priority 2005, dated 2011)

How the values were obtained:
Met = Met (Homo sapiens, UniProt P08581); assay: Luminex bead sandwich assay of Met autophosphorylation in HT29 cell lysate after HGF activation; conditions: HT29 cells, 30 μM inhibitor 45 min, HGF 100 ng/ml
Description: Human tumor cell line HT29 (colorectal carcinoma) were obtained from ATCC and maintained in Dulbecco's modified Eagle's medium containing 10% fetal calf serum at 37° C. in 5% CO2. 16-20 h before inhibitor treatment HT29 cells were starved in medium without fetal calf serum. Cells were incubated for 45 min with 30 μM kinase inhibitor (EGFR-lnhibitor, FAK-inhibitor, IGFR1-inhibitor or Met-Inhibitor) or in medium without kinase inhibitor as a positive control.
Activation of the kinases was initiated for 10-15 min with 100 ng/ml of the corresponding ligands EGF, IGF, HGF for Met kinase or fetal calf serum (FCS) for FAK kinase. […]
2.5×10^6 Luminex microspheres were coupled with 50 μg/ml antibody as described by the manufacturer (capture antibodies for EGFR, IGFR, MET and Fak were obtained from R&D-Systems and Upstate). […] After three wash steps with assay buffer, phosphorylated tyrosin-residues were detected with a biotinylated anti-phospho-tyrosin antibody (1 h agitation at room temperature; Santa Cruz Biotechnology) and phycoerythrin-conjugated Streptavidin (45 min agitation at room temperature; Dianova). Microspheres were analysed in a Luminex™ 100 machine as described by the manufacturer.

IGFR1 = IGFR1 (Homo sapiens, UniProt P08069); assay: Luminex bead sandwich assay of IGFR1 autophosphorylation in HT29 cell lysate after IGF activation; type: cell-based; conditions: HT29 cells, 30 μM inhibitor 45 min, IGF 100 ng/ml
FAK = FAK (Homo sapiens, UniProt Q05397); assay: Luminex bead sandwich assay of FAK autophosphorylation in HT29 cell lysate after FCS activation; type: cell-based; conditions: HT29 cells, 30 μM inhibitor 45 min
Chain of FAK (Q05397 whole entry): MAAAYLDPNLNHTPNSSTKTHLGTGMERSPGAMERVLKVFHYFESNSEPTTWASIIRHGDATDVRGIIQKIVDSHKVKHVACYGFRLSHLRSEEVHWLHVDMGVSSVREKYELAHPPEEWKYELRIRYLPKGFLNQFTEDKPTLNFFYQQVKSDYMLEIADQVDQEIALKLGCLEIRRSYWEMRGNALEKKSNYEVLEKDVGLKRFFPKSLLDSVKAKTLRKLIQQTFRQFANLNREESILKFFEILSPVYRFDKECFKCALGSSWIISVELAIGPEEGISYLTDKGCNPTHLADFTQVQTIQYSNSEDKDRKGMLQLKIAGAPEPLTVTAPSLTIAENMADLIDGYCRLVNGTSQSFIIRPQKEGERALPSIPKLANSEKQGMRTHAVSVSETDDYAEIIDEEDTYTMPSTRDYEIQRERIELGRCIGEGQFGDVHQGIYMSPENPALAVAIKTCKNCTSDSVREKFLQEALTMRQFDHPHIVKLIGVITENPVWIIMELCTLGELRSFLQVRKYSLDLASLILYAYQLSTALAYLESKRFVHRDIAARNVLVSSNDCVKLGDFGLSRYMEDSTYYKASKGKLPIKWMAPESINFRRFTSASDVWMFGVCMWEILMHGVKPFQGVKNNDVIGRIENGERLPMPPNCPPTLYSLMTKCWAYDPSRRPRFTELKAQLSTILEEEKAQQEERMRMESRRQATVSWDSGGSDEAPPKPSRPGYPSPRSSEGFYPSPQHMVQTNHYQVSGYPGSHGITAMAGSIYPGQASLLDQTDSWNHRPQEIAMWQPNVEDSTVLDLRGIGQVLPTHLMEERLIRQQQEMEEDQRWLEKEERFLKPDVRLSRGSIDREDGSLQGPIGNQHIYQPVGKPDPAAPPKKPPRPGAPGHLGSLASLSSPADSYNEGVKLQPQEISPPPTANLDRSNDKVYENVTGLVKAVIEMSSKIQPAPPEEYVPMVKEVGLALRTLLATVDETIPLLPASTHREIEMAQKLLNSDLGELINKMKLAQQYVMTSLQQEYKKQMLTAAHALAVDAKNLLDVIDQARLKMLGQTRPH

Chain of IGFR1 (P08069 31-1367): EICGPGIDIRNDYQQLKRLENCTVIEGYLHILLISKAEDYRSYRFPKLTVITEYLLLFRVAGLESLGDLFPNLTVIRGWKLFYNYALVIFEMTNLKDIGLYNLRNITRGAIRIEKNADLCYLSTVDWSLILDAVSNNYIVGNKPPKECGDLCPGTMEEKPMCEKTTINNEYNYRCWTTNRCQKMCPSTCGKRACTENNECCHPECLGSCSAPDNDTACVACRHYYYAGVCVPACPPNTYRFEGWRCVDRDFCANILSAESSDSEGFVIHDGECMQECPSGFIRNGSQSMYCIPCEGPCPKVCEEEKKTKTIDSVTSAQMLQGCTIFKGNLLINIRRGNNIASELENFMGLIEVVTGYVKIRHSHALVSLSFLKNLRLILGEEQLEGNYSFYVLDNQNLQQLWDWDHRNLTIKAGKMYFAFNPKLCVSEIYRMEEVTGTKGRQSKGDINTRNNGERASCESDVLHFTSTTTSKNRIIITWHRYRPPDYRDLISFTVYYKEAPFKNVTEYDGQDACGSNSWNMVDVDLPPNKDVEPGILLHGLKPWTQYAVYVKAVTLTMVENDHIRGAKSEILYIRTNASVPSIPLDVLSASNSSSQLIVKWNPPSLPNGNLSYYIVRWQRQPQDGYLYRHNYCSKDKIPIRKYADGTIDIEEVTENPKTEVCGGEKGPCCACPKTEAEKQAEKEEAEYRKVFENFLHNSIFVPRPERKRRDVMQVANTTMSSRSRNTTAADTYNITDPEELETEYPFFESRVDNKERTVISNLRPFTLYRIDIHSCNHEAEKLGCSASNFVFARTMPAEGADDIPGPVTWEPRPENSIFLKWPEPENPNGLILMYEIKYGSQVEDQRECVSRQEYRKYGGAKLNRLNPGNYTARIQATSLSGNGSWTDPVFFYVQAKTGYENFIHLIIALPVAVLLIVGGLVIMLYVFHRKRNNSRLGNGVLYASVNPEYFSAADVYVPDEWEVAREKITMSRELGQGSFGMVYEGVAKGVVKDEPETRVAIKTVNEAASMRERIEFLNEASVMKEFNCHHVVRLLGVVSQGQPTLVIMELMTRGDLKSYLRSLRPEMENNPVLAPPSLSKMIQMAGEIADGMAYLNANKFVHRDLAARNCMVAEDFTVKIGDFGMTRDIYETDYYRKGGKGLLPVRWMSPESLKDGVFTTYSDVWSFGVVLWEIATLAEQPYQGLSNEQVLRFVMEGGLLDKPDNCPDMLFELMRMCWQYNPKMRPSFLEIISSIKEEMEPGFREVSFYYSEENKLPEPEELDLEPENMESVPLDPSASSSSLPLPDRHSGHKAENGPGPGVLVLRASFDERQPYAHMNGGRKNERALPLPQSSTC
Chain of Met (P08581 25-1390): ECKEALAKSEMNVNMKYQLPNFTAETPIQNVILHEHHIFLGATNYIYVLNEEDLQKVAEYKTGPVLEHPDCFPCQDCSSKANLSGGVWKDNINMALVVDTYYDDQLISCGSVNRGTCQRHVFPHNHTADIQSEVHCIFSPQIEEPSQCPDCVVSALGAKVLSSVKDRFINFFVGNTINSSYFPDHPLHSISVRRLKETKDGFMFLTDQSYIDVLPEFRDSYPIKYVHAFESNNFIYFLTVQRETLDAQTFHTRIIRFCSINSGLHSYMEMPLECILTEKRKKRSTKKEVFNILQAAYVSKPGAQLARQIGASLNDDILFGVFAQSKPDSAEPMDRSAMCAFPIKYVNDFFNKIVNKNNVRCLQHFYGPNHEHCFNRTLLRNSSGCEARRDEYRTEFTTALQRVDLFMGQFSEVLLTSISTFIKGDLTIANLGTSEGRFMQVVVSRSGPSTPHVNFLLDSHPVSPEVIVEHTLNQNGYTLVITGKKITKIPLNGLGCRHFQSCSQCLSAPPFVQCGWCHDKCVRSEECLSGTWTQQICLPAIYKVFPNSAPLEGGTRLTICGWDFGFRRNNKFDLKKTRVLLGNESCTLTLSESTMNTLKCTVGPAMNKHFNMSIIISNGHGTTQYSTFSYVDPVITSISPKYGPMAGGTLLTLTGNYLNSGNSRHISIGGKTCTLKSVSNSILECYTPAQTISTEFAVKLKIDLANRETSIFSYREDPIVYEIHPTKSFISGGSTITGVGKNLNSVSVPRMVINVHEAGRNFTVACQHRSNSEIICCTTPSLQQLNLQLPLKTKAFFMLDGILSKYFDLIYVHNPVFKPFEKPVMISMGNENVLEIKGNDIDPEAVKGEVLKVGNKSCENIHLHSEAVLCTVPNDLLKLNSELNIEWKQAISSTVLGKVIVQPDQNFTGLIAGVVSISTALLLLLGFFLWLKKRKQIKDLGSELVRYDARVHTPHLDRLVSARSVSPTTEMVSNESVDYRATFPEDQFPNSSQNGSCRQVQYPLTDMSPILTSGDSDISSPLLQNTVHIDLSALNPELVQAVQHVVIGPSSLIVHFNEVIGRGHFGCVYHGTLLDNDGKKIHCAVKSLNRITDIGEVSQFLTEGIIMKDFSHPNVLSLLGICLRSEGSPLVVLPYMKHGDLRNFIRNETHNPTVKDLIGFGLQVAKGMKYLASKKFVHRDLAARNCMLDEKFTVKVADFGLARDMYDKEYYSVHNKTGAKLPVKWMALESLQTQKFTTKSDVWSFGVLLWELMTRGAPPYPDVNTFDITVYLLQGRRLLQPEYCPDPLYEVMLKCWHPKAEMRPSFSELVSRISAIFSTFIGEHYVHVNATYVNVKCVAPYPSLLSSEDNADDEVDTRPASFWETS

| SMILES | Met-phosphorylation, mean fluorescence intensity (MFI) (Met; multiple capture antibodies (EGFR, IGFR, FAK, Met) in one cavity, control without inhibitor MFI=817) | Met-phosphorylation, mean fluorescence intensity (MFI) (Met; single capture antibody (Met) in one cavity, control without inhibitor MFI=675) | IGFR1-phosphorylation, mean fluorescence intensity (MFI) (IGFR1; multiple capture antibodies (EGFR, IGFR, FAK, Met) in one cavity, control without inhibitor MFI=673) | IGFR1-phosphorylation, mean fluorescence intensity (MFI) (IGFR1; single capture antibody (IGFR1) in one cavity, control without inhibitor MFI=529) | FAK-phosphorylation, mean fluorescence intensity (MFI) (FAK; multiple capture antibodies (EGFR, IGFR, FAK, Met) in one cavity, control without inhibitor MFI=1143) | FAK-phosphorylation, mean fluorescence intensity (MFI) (FAK; single capture antibody (FAK) in one cavity, control without inhibitor MFI=957) |
| --- | --- | --- | --- | --- | --- | --- |
| Cc1[nH]c(/C=C2\C(=O)Nc3ccc(S(=O)(=O)Cc4c(Cl)cccc4Cl)cc32)c(C)c1C(=O)N1CCC[C@@H]1CN1CCCC1 [Met-Kinase inhibitor] | 9 | 9 | – | – | – | – |
| COc1cc(Nc2nccc(Nc3cnc4ccccc4c3)n2)cc(OC)c1OC [FAK-Kinase inhibitor] | – | – | 3 | 3 | 39 | 37 |
